Measured values: patent publication US20230293560A1, “METHOD FOR MODULATING THE BLADDER MICROBIOME TO IMPROVE BLADDER HEALTH” (Kimberly-Clark Worldwide, Inc., priority 2020, published 2023)

Experiments:
E. coli = experiment: Additional prebiotic screening against E. coli; type: cell-based, Escherichia coli; settings: for # fermented, Ec-1 / # grew, Ec-1: E. coli KC16-7171-8, Bladder; for # fermented, Ec-1 / # grew, Ec-1 / # fermented, Ec-2 / # grew, Ec-2 / # fermented, Ec-3 / # grew, Ec-3 / # fermented, Ec-4 / # grew, Ec-4 / # fermented, Ec-5 / # grew, Ec-5: of 2 tested; for # fermented, Ec-2 / # grew, Ec-2: E. coli KC17-3969-1, Bladder; for # fermented, Ec-3 / # grew, Ec-3: E. coli KC17-3970-4, Vagina; for # fermented, Ec-4 / # grew, Ec-4: E. coli KC17-4296-4, Vagina; for # fermented, Ec-5 / # grew, Ec-5: E. coli KC17-4297-5, Bladder; for growth or fermentation of E. coli, in words: E. coli from vaginal or bladder source
Excerpt: Additional screening of three prebiotic compounds of alpha-methyl-D-glucoside, isomaltulose, and alpha cyclodextrin was completed against pathogenic bacteria species Escherichia coli from both bladder and vaginal sources, as shown in Table 4. The growth of the bacterial species for this additional screening process against E. coli was not compared to growth of a control as in the screening process documented in Table 3, but was documented based on growth or no growth for the number of samples tested.
• 1. Create a 2% w/v stock of prebiotic or positive control (glucose/dextrose) to be tested in API 50 CHL media (Biomerieux, Marcy-I'Étoile, France). API 50 CHL media contains minimal amounts of carbon for growth, and a bromocresol purple as a pH indicator of fermentation. Filter sterilize media with a […]. Store at 4-6° C. until use. • 2. Add 180 μL of media containing the prebiotic to a sterile, flat bottom 96-well microtiter plate (Corning, Corning, NY). • 3. From a freezer stock subculture the bacteria twice into De Man, Rogosa and Sharpe (MRS) broth (BD Difco, Becton Dickinson, Franklin Lakes, NJ), 37° C., stationary, anaerobic, overnight. • 4. From the last subculture, plate onto an MRS agar plate (Teknova, Hollister, CA) and grow 37° C., stationary, anaerobic, overnight. • 5. Create a bacterial suspension by using a sterile tipped swab to transfer colonies of bacteria into a PBS suspension blank to a 0.5 MacFarland (S. anginosus or E. faecalis) or a 1 MacFarland (Lactobacillus species) from the MRS agar plate. • 6. Enumerate the starting culture. • 7. Inoculate the media alone and media containing the prebiotic or positive control with 20 μL of the bacterial suspension. • 8. Place the plate into a spectrophotometer (Molecular Devices, San Jose, CA) and read the plate every 20 minutes for 24-48 hours. Read wavelengths (OD 430, OD 590, and OD 660). A color change to yellow caused by a drop in pH will be read by an increase in the OD430 value and a decrease in the OD590 value and is indicative of bacterial fermentation. An increase in OD660 values is indicative of an increase in turbidity and bacterial growth.

[1] = test system: commensal and pathogenic bacterial species; experiment: Prebiotic screening, summary in words across species; type: cell-based; settings: commensal (L. crispatus, L. gasseri, L. jensenii) and pathogenic (S. anginosus, E. faecalis) species
Outline: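 Prebiotics at 2% w/v stock in API 50 CHL medium with bromocresol purple, inoculated with bacteria and read every 20 min for 24-48 h at OD430/590 (fermentation) and OD660 (growth), scored against a glucose control. Some tested on MRS-based agar with the prebiotic in place of glucose; competition assay with L. crispatus and S. anginosus incubated 48 h anaerobically at 37 °C, then enumerated on MRS and TSA.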

Row | Compound | # fermented, Ec-1 (E. coli) | # grew, Ec-1 (E. coli) | # fermented, Ec-2 (E. coli) | # grew, Ec-2 (E. coli) | # fermented, Ec-3 (E. coli) | # grew, Ec-3 (E. coli) | # fermented, Ec-4 (E. coli) | # grew, Ec-4 (E. coli) | # fermented, Ec-5 (E. coli) | # grew, Ec-5 (E. coli) | growth or fermentation of E. coli, in words (E. coli) | overall outcome of the screening of Table 3, in words [1]
1 | CO[C@H]1O[C@H](CO)[C@@H](O)[C@H](O)[C@H]1O [Alpha-Methyl-D-Glucoside] | 0 | 0 | 0 | 0 | 0 | 0 | 0 | 0 | 0 | 0 | did not grow or ferment | growing at least some of the commensal bacterial species and either having less growth than the positive control or almost no growth of the pathogenic bacterial species
2 | OC[C@H]1O[C@H](OC[C@H]2OC(O)(CO)[C@@H](O)[C@@H]2O)[C@H](O)[C@@H](O)[C@@H]1O (stereo partly drawn) [Palatinose (isomaltulose), isomaltulose] | 0 | 0 | 0 | 0 | 0 | 0 | 0 | 0 | 0 | 0 | did not grow or ferment | growing at least some of the commensal bacterial species and either having less growth than the positive control or almost no growth of the pathogenic bacterial species
